The results in this text go back to ChEMBL document CHEMBL4699534, “Optimizing PEG-Extended Apelin Analogues as Cardioprotective Drug Leads: Importance of the KFRR Motif and Aromatic Head Group for Improved Physiological Activity” (J Med Chem, 2020).

Non-standard residues stand in square brackets, D forms with d. Residues, ends and D or L forms follow the SMILES beside them. Phe(4-Br) = N[C@@H](Cc1ccc(Br)cc1)C(=O)O; PEG7 = NCCOCCOCCOCCOCCOCCOCCOCCC(=O)O; NMeR = CN[C@@H](CCCNC(=N)N)C(=O)O; αMeR = C[C@](N)(CCCNC(=N)N)C(=O)O; NMeL = CN[C@@H](CC(C)C)C(=O)O; Nle = CCCC[C@H](N)C(=O)O; Aib = CC(C)(N)C(=O)O

In data set [1] the target is T1, Apelin receptor (Rattus norvegicus, UniProt Q9JHG3).
T1 sequence (Q9JHG3 whole entry): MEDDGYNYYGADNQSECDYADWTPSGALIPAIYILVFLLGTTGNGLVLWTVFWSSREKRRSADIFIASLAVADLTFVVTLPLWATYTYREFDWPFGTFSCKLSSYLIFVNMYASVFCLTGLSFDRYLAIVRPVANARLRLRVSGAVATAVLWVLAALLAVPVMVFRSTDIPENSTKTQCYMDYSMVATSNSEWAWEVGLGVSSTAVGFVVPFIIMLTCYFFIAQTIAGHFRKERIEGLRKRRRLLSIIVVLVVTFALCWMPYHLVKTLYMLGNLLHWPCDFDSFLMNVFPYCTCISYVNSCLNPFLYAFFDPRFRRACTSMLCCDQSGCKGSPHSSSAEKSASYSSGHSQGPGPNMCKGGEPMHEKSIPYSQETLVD
Kind of data set: Displacement of [125I]-pyr-1-apelin-13 from EGFP-tagged wild-type rat apelin receptor expressed in CHO cell membranes by gamma counting method. The arrangement: species or system Cell membrane.

The target of data set [2] is T2, Apelin receptor (Homo sapiens, UniProt P35414).
T2 sequence (P35414 whole entry): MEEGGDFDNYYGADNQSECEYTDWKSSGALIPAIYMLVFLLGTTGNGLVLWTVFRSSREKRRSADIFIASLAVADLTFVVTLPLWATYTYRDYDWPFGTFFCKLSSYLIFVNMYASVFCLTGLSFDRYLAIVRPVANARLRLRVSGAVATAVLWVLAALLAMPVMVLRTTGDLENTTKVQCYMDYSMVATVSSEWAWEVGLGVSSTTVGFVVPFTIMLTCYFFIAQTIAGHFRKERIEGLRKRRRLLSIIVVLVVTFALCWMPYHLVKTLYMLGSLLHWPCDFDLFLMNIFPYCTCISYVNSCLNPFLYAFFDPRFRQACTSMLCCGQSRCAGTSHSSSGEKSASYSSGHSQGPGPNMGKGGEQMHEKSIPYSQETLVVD
The data set can be described thus: Activation of APJ receptor (unknown origin) expressed in Chem-5 cells assessed as stimulation of Ca2+ mobilization by Calcium 6-GF dye based fluorescence based assay. The class given is functional, cell-based.

The test system of another data set is Mus musculus. Kind of data set: Cardioprotective activity in C57BL/6 mouse assessed as reduction in mean arterial blood pressure at 1.4 uM/kg, iv measured after 15 mins relative to control. The class given is functional. The following applies: 0.25 h.
The nature of data set [3]: Half life in human plasma at 400 uM by HPLC analysis. The class given is ADME, cell-free.

In turn, `CSCC[C@H](NC(=O)[C@@H]1CCCN1C(=O)CNC(=O)[C@H](CCCCN)NC(=O)[C@H](Cc1c[nH]cn1)NC(=O)[C@H](CO)NC(=O)[C@H](CC(C)C)NC(=O)[C@H](CCCNC(=N)N)NC(=O)[C@@H]1CCCN1C(=O)[C@H](CCCNC(=N)N)NC(=O)[C@H](CCC(N)=O)NC(=O)[C@H](CCCNC(=N)N)NC(=O)[C@H](CCCNC(=N)N)NC(=O)[C@H](C)NC(=O)[C@@H](N)CCCCN)C(=O)N1CCC[C@H]1C(=O)N[C@@H](Cc1ccccc1)C(=O)O` showed a 50% inhibitory concentration (IC50) at Apelin receptor [1] of 1 nM. Moreover, the EC50 on Apelin receptor [2] is 6.17 nM. Moreover, the Activity with Mus musculus is -3 mmHg.

Turning to `CSCC[C@H](NC(=O)[C@@H]1CCCN1C(=O)CNC(=O)[C@H](CCCCN)NC(=O)[C@H](Cc1c[nH]cn1)NC(=O)[C@H](CO)NC(=O)[C@H](CC(C)C)NC(=O)[C@H](CCCNC(=N)N)NC(=O)[C@@H]1CCCN1C(=O)[C@H](CCCNC(=N)N)NC(=O)[C@H](CCC(N)=O)NC(=O)[C@H](C)NC(=O)[C@H](CCCNC(=N)N)NC(=O)[C@H](Cc1ccccc1)NC(=O)[C@@H](N)CCCCN)C(=O)N1CCC[C@H]1C(=O)N[C@@H](Cc1ccccc1)C(=O)O`, on Apelin receptor [1], the IC50 is 2.19 nM. In addition, the EC50 at Apelin receptor [2] is 74.1 nM. For the same molecule, in the data set with Mus musculus, the Activity is -9 mmHg.

On Apelin receptor [1], `CSCC[C@H](NC(=O)[C@@H]1CCCN1C(=O)CNC(=O)[C@H](CCCCN)NC(=O)[C@H](Cc1c[nH]cn1)NC(=O)[C@H](CO)NC(=O)[C@H](CC(C)C)NC(=O)[C@H](CCCNC(=N)N)NC(=O)[C@@H]1CCCN1C(=O)[C@H](CCCNC(=N)N)NC(=O)[C@H](CCC(N)=O)NC(=O)[C@H](CCCNC(=N)N)NC(=O)[C@H](CCCNC(=N)N)NC(=O)[C@H](Cc1ccccc1)NC(=O)[C@H](C)N)C(=O)N1CCC[C@H]1C(=O)N[C@@H](Cc1ccccc1)C(=O)O` showed an IC50 of 1 nM. Moreover, the EC50 on Apelin receptor [2] is 5.37 nM. Also, the Activity in the data set with Mus musculus is -14 mmHg.

With `CCCC[C@H](NC(=O)[C@@H]1CCCN1C(=O)CNC(=O)[C@H](CCCCN)NC(=O)[C@H](Cc1c[nH]cn1)NC(=O)[C@H](CO)NC(=O)[C@H](CC(C)C)N(C)C(=O)[C@H](CCCNC(=N)N)NC(=O)[C@@H]1CCCN1C(=O)[C@H](CCCNC(=N)N)NC(=O)[C@H](CCC(N)=O)NC(=O)CCOCCOCCOCCOCCOCCOCCOCCOCCOCCOCCNC(=O)OCC1c2ccccc2-c2ccccc21)C(=O)NC(C)(C)C(=O)N[C@@H](Cc1ccc(Br)cc1)C(=O)O`, on Apelin receptor [1], the IC50 is 1.91 nM. The half-life at 400 µM in data set [3] is 8.6 h. In addition, at Apelin receptor [2], the concentration giving a half-maximal response (EC50) is > 200 nM. For the same molecule, the Activity in the data set on Mus musculus was found to be 1 mmHg.

For the molecule `CCCC[C@H](NC(=O)[C@@H]1CCCN1C(=O)CNC(=O)[C@H](CCCCN)NC(=O)[C@H](Cc1c[nH]cn1)NC(=O)[C@H](CO)NC(=O)[C@H](CC(C)C)N(C)C(=O)[C@H](CCCNC(=N)N)NC(=O)[C@@H]1CCCN1C(=O)[C@H](CCCNC(=N)N)NC(=O)[C@H](CCC(N)=O)NC(=O)CCOCCOCCOCCOCCOCCOCCNC(=O)OCC1c2ccccc2-c2ccccc21)C(=O)NC(C)(C)C(=O)N[C@@H](Cc1ccc(Br)cc1)C(=O)O`, the half-inhibitory concentration (IC50) on Apelin receptor [1] is 3.02 nM. In data set [3], this molecule showed a half-life at 400 µM of 6.9 h. Moreover, the EC50 at Apelin receptor [2] is 49 nM. The Activity in the data set on Mus musculus came to 9 mmHg.

Take `CSCC[C@H](NC(=O)[C@@H]1CCCN1C(=O)CNC(=O)[C@H](CCCCN)NC(=O)[C@H](Cc1c[nH]cn1)NC(=O)[C@H](CO)NC(=O)[C@H](CC(C)C)NC(=O)[C@H](CCCNC(=N)N)NC(=O)[C@@H]1CCCN1C(=O)[C@H](CCCNC(=N)N)NC(=O)[C@H](CCC(N)=O)NC(=O)[C@H](CCCNC(=N)N)NC(=O)[C@H](C)NC(=O)[C@H](Cc1ccccc1)NC(=O)[C@@H](N)CCCCN)C(=O)N1CCC[C@H]1C(=O)N[C@@H](Cc1ccccc1)C(=O)O`: at Apelin receptor [1], the half-maximal inhibitory concentration (IC50) is 1.41 nM. Further, the EC50 on Apelin receptor [2] was 39.8 nM. For the same molecule, in the data set with Mus musculus, the Activity was 1 mmHg.

Take `CCCC[C@H](NC(=O)[C@@H]1CCCN1C(=O)CNC(=O)[C@H](CCCCN)NC(=O)[C@H](Cc1c[nH]cn1)NC(=O)[C@H](CO)NC(=O)[C@H](CC(C)C)NC(=O)[C@H](CCCNC(=N)N)NC(=O)[C@@H]1CCCN1C(=O)[C@H](CCCNC(=N)N)NC(=O)[C@H](CCC(N)=O)NC(=O)[C@H](CCCNC(=N)N)NC(=O)[C@H](CCCNC(=N)N)NC(=O)[C@H](Cc1ccccc1)NC(=O)[C@H](C)N)C(=O)NC(C)(C)C(=O)N[C@@H](Cc1ccc(Br)cc1)C(=O)O` (H-AFRRQRPRLSHKGP[Nle][Aib][Phe(4-Br)]-OH): the IC50 at Apelin receptor [1] is 0.2 nM.

For the molecule `CCCC[C@H](NC(=O)[C@@H]1CCCN1C(=O)CNC(=O)[C@H](CCCCN)NC(=O)[C@H](Cc1c[nH]cn1)NC(=O)[C@H](CO)NC(=O)[C@H](CC(C)C)N(C)C(=O)[C@H](CCCNC(=N)N)NC(=O)[C@@H]1CCCN1C(=O)[C@H](CCCNC(=N)N)NC(=O)[C@H](CCC(N)=O)NC(=O)[C@H](CCCNC(=N)N)NC(=O)[C@H](CCCNC(=N)N)NC(=O)[C@H](Cc1ccccc1)NC(=O)[C@H](CCCCN)NC(=O)CCOCCOCCOCCOCCOCCOCCOCCNC(=O)[C@@H](N)Cc1ccccc1)C(=O)NC(C)(C)C(=O)N[C@@H](Cc1ccc(Br)cc1)C(=O)O` (H-F[PEG7]KFRRQRPR[NMeL]SHKGP[Nle][Aib][Phe(4-Br)]-OH), on Apelin receptor [1], the IC50 is 1.7 nM. Moreover, the half-life at 400 µM in data set [3] is 6.4 h. Further, the concentration giving a half-maximal response (EC50) on Apelin receptor [2] is 25.7 nM. The Activity with Mus musculus turned out to be 24 mmHg.

As to `CCCC[C@H](NC(=O)[C@@H]1CCCN1C(=O)CNC(=O)[C@H](CCCCN)NC(=O)[C@H](Cc1c[nH]cn1)NC(=O)[C@H](CO)NC(=O)[C@H](CC(C)C)NC(=O)[C@H](CCCNC(=N)N)NC(=O)[C@@H]1CCCN1C(=O)[C@H](CCCNC(=N)N)NC(=O)[C@H](CCC(N)=O)NC(=O)[C@H](CCCNC(=N)N)NC(=O)[C@H](CCCNC(=N)N)NC(=O)[C@H](C)NC(=O)[C@@H](N)CCCCN)C(=O)NC(C)(C)C(=O)N[C@@H](Cc1ccc(Br)cc1)C(=O)O` (H-KARRQRPRLSHKGP[Nle][Aib][Phe(4-Br)]-OH), the 50% inhibitory concentration (IC50) at Apelin receptor [1] is 0.295 nM.

Turning to `CCCC[C@H](NC(=O)[C@@H]1CCCN1C(=O)CNC(=O)[C@H](CCCCN)NC(=O)[C@H](Cc1c[nH]cn1)NC(=O)[C@H](CO)NC(=O)[C@H](CC(C)C)NC(=O)[C@H](CCCNC(=N)N)NC(=O)[C@@H]1CCCN1C(=O)[C@H](CCCNC(=N)N)NC(=O)[C@H](CCC(N)=O)NC(=O)[C@H](CCCNC(=N)N)NC(=O)[C@H](C)NC(=O)[C@H](Cc1ccccc1)NC(=O)[C@@H](N)CCCCN)C(=O)NC(C)(C)C(=O)N[C@@H](Cc1ccc(Br)cc1)C(=O)O` (H-KFARQRPRLSHKGP[Nle][Aib][Phe(4-Br)]-OH), the 50% inhibitory concentration (IC50) on Apelin receptor [1] is 0.219 nM.

As to `CCCC[C@H](NC(=O)[C@@H]1CCCN1C(=O)CNC(=O)[C@H](CCCCN)NC(=O)[C@H](Cc1c[nH]cn1)NC(=O)[C@H](CO)NC(=O)[C@H](CC(C)C)NC(=O)[C@H](CCCNC(=N)N)NC(=O)[C@@H]1CCCN1C(=O)[C@H](CCCNC(=N)N)NC(=O)[C@H](CCC(N)=O)NC(=O)[C@H](C)NC(=O)[C@H](CCCNC(=N)N)NC(=O)[C@H](Cc1ccccc1)NC(=O)[C@@H](N)CCCCN)C(=O)NC(C)(C)C(=O)N[C@@H](Cc1ccc(Br)cc1)C(=O)O` (H-KFRAQRPRLSHKGP[Nle][Aib][Phe(4-Br)]-OH), the IC50 on Apelin receptor [1] was 0.302 nM.

`CCCC[C@H](NC(=O)[C@@H]1CCCN1C(=O)CNC(=O)[C@H](CCCCN)NC(=O)[C@H](Cc1c[nH]cn1)NC(=O)[C@H](CO)NC(=O)[C@H](CC(C)C)N(C)C(=O)[C@H](CCCNC(=N)N)NC(=O)[C@@H]1CCCN1C(=O)[C@H](CCCNC(=N)N)NC(=O)[C@H](CCC(N)=O)NC(=O)[C@H](CCCNC(=N)N)N(C)C(=O)[C@H](CCCNC(=N)N)NC(=O)[C@H](Cc1ccccc1)NC(=O)[C@@H](N)CCCCN)C(=O)NC(C)(C)C(=O)N[C@@H](Cc1ccc(Br)cc1)C(=O)O` (H-KFR[NMeR]QRPR[NMeL]SHKGP[Nle][Aib][Phe(4-Br)]-OH): the IC50 on Apelin receptor [1] was 1.51 nM. This molecule also showed a half-life at 400 µM in data set [3] of 5.2 h. For the same molecule, the EC50 on Apelin receptor [2] was 3.47 nM. Besides, in the data set on Mus musculus, the Activity is 14 mmHg.

`CCCC[C@H](NC(=O)[C@@H]1CCCN1C(=O)CNC(=O)[C@H](CCCCN)NC(=O)[C@H](Cc1c[nH]cn1)NC(=O)[C@H](CO)NC(=O)[C@H](CC(C)C)N(C)C(=O)[C@H](CCCNC(=N)N)NC(=O)[C@@H]1CCCN1C(=O)[C@H](CCCNC(=N)N)NC(=O)[C@H](CCC(N)=O)NC(=O)[C@](C)(CCCNC(=N)N)NC(=O)[C@H](CCCNC(=N)N)NC(=O)[C@H](Cc1ccccc1)NC(=O)[C@@H](N)CCCCN)C(=O)NC(C)(C)C(=O)N[C@@H](Cc1ccc(Br)cc1)C(=O)O` (H-KFR[αMeR]QRPR[NMeL]SHKGP[Nle][Aib][Phe(4-Br)]-OH): the half-inhibitory concentration (IC50) at Apelin receptor [1] was 1 nM. The same molecule showed a half-life at 400 µM in data set [3] of 7.1 h. Also, the EC50 on Apelin receptor [2] was 2.4 nM. Also, the Activity in the data set with Mus musculus is 18 mmHg.
